Data taken from US20200345686A1, “COMPOSITIONS AND METHODS FOR TREATING SKIN AND N[…] DISORDERS” (VCP IP HOLDINGS, LLC, LIMITED LIABILITY COMPANY DELAWARE, priority 2019, published 2020).

Columns and labels:
[1] = Tape-strip test of THC absorbance into pig skin after topical application of salve; format: in vitro ADME
Method: A composition as described herein, e.g., in the form of a salve containing 1000 mg THC and carrier components was tested for its absorbance into skin following topical application to the skin of an animal (pig).
The absorbance testing procedure was performed as follows: the salve/lotion composition was applied topically to an area of the skin of a pig. Approximately 500 mg of the salve/lotion composition was applied to the area of skin using a gloved finger. The composition was applied to the skin by rubbing in a circular motion. The applied composition (salve composition) remained on the skin for different time periods, i.e., 10 minutes, 30 minutes, or 60 minutes, to allow the components of the composition, e.g., THC, to absorb into the skin. At the end of each time period, the area of the skin on which the composition had been applied was contacted with adhesive strips to test for the presence of residual cannabinoids, using an adhesive test tape (strip) method, e.g., as known in the art. (See, e.g., A. L. M. Ruela et al., 2016, BJPS, Vol. 52, No. 3:527-544; S. Zsiko et al., 2019, Sci. Pharm. (Review), Vol. 87, No. 19; doi:10.3390/scipharm87030019, 21 pages). In general, the tape-stripping technique is employed for analysis of penetration of an active or component (e.g., THC) into the stratum corneum. The procedure may be applied using an animal skin model, such as pig skin, e.g., a portion of skin removed from the animal. The procedure involved the sequence removal of cell layers of the stratum corneum by application of pieces (strips) of adhesive tape. The residues of the applied composition or formulation were removed from the skin surface, and the adhesive strip was applied by using pressure to ensure its adhesion to the skin. […]
FIG. 1 illustrates the results of the time course experiment following absorption testing 10 minutes after the composition comprising 1000 mg THC+carrier ingredients was applied to the animal's skin. Absorption or permeation of THC (ppm) per layer of skin (20 skin layers deep) was assessed using adhesive test strips. […]

[2] = mammals; cited from earlier work
[3] = mice; cited from earlier work
[4] = target: cannabinoid receptor type-2 (CB2) (Homo sapiens, UniProt P34972); details: cited from earlier work
[5] = one study; cited from earlier work

cannabinoid receptor type-2 (CB2), sequence (P34972 whole entry, species assumed): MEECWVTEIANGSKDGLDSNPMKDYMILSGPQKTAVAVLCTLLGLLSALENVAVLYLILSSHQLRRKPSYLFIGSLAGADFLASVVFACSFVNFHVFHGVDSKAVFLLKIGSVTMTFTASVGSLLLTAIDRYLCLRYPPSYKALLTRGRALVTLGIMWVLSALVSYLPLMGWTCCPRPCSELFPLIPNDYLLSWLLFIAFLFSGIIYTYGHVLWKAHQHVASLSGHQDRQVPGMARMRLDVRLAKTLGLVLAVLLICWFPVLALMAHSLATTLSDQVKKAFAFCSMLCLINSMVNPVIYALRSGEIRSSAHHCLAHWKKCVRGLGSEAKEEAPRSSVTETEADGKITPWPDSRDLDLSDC

For `CCCCCc1cc(O)c2c(c1)OC(C)(C)[C@@H]1CCC(C)=C[C@@H]21` [THC, Δ^9-tetrahydrocannabinol], the “presence of cannabinoids in the skin layers beneath the stratum corneum” value ([1]; 5 ppm limit of quantification (LOQ), pig skin tape strips) was “inability to detect the presence of cannabinoids”, the “location of THC component in skin” value ([1]; 60 minutes after topical application, salve containing 1000 mg THC + carrier, pig skin) was “the majority of the THC component had entered the stratum corneum” and the “time after topical application at which absorption or penetration of THC into the skin was highest” value ([1]; salve containing 1000 mg THC + carrier, approx. 500 mg applied to pig skin, 20 tape strips, HPLC) was 10 to 30 min.
For `C/C1=C\CC/C(C)=C/CC(C)(C)/C=C/C1` [Humulene], the anti-inflammatory activity [2] is listed as “effects similar to those of dexamethasone”.
For `C=C1CCC=C(C)CCC2C1CC2(C)C` (stereo not shown) [Caryophyllene, 4,11,11-trimethyl-8-methylene-bicyclo[7.2.0]undec-4-ene], the anti-inflammatory effects [3] is given as “significant cannabi-mimetic, anti-inflammatory effects” and the “activity at CB2” value [4] is given as “selective agonist”.
For `C=C(C)[C@@H]1CCC(C)=C[C@H]1c1c(O)cc(CCCCC)cc1O` [CBD, (−)-trans-cannabidiol], the “relieving pain and reducing inflammation compared with aspirin” value [5] is given as “more effective than aspirin”.
